Patent US8906852B2 (MethylGene Inc., priority 2010, dated 2014)

Experiments:
[1] = biological target: T1, VEGFR/KDR (Homo sapiens, UniProt P35968); experiment: VEGFR/KDR kinase inhibition, DELFIA assay; assay type: biochemical; conditions: ATP 0.6 uM (2x Km), enzyme 5 nM
T1 construct: made in house; host or cells: Sf9 cells (Spodoptera frugiperda), baculovirus
How it was run: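 Enzyme (5 nM) pre-incubated 4 min on ice with inhibitor and Mg-ATP (0.6 uM, 2× Km), then reacted 10-30 min at 30° C on immobilized poly(Glu4,Tyr). EDTA-quenched phosphotyrosine detected with Europium-labeled antibody by time-resolved fluorescence; IC50 from concentration series.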

[2] = test system: CNV progression; experiment: In vivo choroidal neovascularization (CNV) model, laser-induced, intravitreal injection; design: species or system Male Brown-Norway rats; conditions: 240 h; rat, 10 nmol/eye injected on Day 3, CNV area on Day 10, vs vehicle
Source text: This test measures the capacity of compounds to inhibit CNV progression. CNV is the main cause of severe vision loss in patients suffering from age-related macular degeneration (AMD).
Male Brown-Norway rats (Japan Clea Co., Ltd.) were used in these studies.
Rats were anesthetized by intraperitoneal injection of pentobarbital, and the right pupil was dilated with 0.5% tropicamide and 0.5% phenylephrine hydrochloride. The right eye received 6 laser burns between retinal vessels using a slit lamp delivery system of Green laser Photocoagulator (Nidex Inc., Japan), and microscope slide glass with Healon™ (AMO Inc) used as a contact lens. The laser power was 100 or 200 mW for 0.1 second and spot diameter was 100 μm. At the time of laser burn, bubble production was observed, which is an indication of rupture of Bruch's membrane which is important for CNV generation.
Rats were divided into the groups based on their body weight using SAS software (SAS institute Japan, R8.1) after laser irradiation (Day 0). After animals were anesthetized, and the right pupil dilated (as above mentioned), the right eye of the animal received the compound or vehicle by an injection (10 μL/eye) at doses of 10 or 3 nmol/eye on Day 3. The compounds were dissolved or suspended in CBS, PBS, or other adequate vehicles before injection.
On Day 10, the animals were anesthetized with ether, and high molecular weight fluorescein isothiocyanate (FITC)-dextran (SIGMA, 2×10^6 MW) was injected via a tail vein (20 mg/rat). About 30 min after FITC-dextran injection, animals were euthanized by ether or carbon dioxide, and the eyes were removed and fixed with 10% formaline neutral buffer solution. After over 1 hour of fixation, RPE-choroid-sclera flat mounts were obtained by removing cornea, lens and retina from the eyeballs. The flat mounts were mounted in 50% glycerol on a microscope slide, and the portion burned by laser was photographed using a fluorescence microscope (Nikon Corporation, excitation filter:465-495 nm, absorption filter:515-555 nm). The CNV area was obtained by measurement of hyper-fluorescence area observed on the photograph using Scion image.
The average CNV area of 6 burns was used as an individual value of CNV area, and the average CNV area of compound treated group was compared with that of the vehicle-treated group.

T1 sequence (P35968 806-1356): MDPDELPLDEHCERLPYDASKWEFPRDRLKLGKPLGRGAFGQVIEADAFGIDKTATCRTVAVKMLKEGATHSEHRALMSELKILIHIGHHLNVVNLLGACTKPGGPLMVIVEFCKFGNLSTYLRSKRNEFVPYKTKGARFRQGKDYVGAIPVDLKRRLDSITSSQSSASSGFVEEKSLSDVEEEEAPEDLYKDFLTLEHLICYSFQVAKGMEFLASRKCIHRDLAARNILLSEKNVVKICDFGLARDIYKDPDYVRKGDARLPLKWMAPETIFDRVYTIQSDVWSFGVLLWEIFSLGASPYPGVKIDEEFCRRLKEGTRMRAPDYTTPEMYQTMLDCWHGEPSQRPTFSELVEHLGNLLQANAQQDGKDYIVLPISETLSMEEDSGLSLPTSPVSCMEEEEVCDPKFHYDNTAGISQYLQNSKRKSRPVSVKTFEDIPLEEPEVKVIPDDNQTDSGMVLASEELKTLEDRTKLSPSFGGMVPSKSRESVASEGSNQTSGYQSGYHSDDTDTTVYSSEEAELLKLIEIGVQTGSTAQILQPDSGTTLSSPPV

IC50 [1] [nM]	SMILES	inhibition in vivo at 10 nmol/eye [2] [%]
< 50	CC(=O)N(CCS(C)(=O)=O)Cc1ccc(-c2cc3nccc(Oc4ccc(NC(=O)NC5CC5)cc4F)c3s2)nc1 [Compound 43, N-((6-(7-(4-(3-cyclopropylureido)-2-fluorophenoxy)thieno[3,2-b]pyridin-2-yi)pyridin-3-yl)methyl)-N-(2-(methylsulfonyl)ethyl)acetamide]	40 to 60
< 50	Cn1c(CN2CCCC2=O)cnc1-c1cc2nccc(Oc3ccc(NC(=O)NC4CC4)cc3F)c2s1 [Compound 137, 1-cyclopropyl-3-(3-fluoro-4-(2-(1-methyl-5-((2-oxopyrrolidin-1-yl)methyl)-1H-imidazol-2-yl)thieno[3,2-b]pyridin-7-yloxy)phenyl)urea]	40 to 60
< 50	COCCOCCOCCOCCN(Cc1ccc(-c2cc3nccc(Oc4ccc(NC(=O)NC5CC5)cc4F)c3s2)nc1)C(=O)CO [Compound 45]	40 to 60
